Test results from patent US5747456A, “Continuous low-dose administration of parathyroid hormone or its agonist” (Beth Israel Deaconess Medical Center, priority 1996, dated 1998).
Non-standard residues stand in square brackets, D forms with d. Residues, ends and D or L forms follow the SMILES beside them. Nle = CCCC[C@H](N)C(=O)O

Key:
[1] = target: T1, PTH/PTHrP receptor in SaOS-2 B10 cells (Homo sapiens, UniProt Q03431); assay: Competition binding of mono-125I-[Nle8,18,Tyr34(3-I125)]bPTH1-34 NH2 to SaOS-2 B10 cells; settings: 2 hrs at room temperature, read-out: IC50 (half maximal inhibition of binding of mono-125I-[Nle8,18,Tyr34(3-I125)]bPTH1-34 NH2)
T1 construct: endogenous in cells; host or cells: SaOS-2 B10 cells (subclone of the human osteosarcoma line SaOS-2)
T1 sequence (Q03431 27-593): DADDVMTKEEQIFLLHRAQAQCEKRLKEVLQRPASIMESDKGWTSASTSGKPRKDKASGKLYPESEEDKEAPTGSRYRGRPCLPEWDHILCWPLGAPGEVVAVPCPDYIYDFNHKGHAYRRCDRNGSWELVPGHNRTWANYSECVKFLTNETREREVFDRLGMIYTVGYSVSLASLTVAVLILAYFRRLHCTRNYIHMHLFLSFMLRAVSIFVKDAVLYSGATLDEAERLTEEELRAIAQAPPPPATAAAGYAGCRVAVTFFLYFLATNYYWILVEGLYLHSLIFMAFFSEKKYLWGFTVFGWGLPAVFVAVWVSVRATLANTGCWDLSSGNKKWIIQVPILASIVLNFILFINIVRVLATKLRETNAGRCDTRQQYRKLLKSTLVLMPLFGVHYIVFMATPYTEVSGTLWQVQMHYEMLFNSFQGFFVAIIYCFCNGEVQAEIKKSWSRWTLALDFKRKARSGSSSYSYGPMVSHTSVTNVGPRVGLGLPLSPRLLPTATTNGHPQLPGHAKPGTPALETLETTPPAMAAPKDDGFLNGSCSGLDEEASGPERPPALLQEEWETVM
Description: SaOS-2 B10 cells were maintained in RPMI1640 medium supplemented with 10% fetal bovine serum (FBS) and 2 mM glutamine at 37° C. in a humidified atmosphere of 5% CO2 in air. The medium was changed every three or four days, and the cells were subcultured every week by trypsinization.
SaOs-2 B10 cells were maintained for four days after they had reached confluence. The medium was replaced with 5% FBS […] medium and incubated for 2 hrs at room temperature with 10×10^4 cpm mono-^125 -I-[Nle^8,18,Tyr^34 (3-I^125)]bPTH1-34 NH2 in the presence or absence of a competing tested PTH agonist. The cells were washed four times with ice-cold PBS and lysed with 0.1M NaOH, and the radioactivity associated with the cells was counted in a scintillation counter. Synthesis of the radiolabelled [Nle8,18. Tyr^34 (3-I^125)]bPTH1-34 NH2 was carried out as described in Goldman M E et al., Endocrinology, 1988, 123, 1468-1475.
The binding assay was conducted on Analogs I-IV and Analog V (i.e., [Nle^8, Nle^18, Tyr^34 ]bPTH1-34 NH2).

[2] = system: adenylate cyclase in SaOS-2 B10 cells; assay: Adenylate cyclase activity (cyclic AMP) in SaOS-2 B10 cells; assay type: cell-based, human; settings: 1 mM IBMX, 5 min incubation with analog, read-out: EC50 (half maximal stimulation of adenylate cyclase)
Description: The adenylate cyclase activity induced by each of Analogs I-V was also measured in SaOS-2 B10 cells as described previously (Rodan et al. 1983 J. Clin. Invest. 72;1511; Goldman et al. 1988 Endocrinology 123, 1468). Confluent SaOS-2 B10 cells in 24 wells plates were incubated 0.5 μCi[^3 H]adenine (26.9 Ci/mmol, New England Nuclear, Boston, Mass.) in fresh medium at 37° C. for 2 hrs, and washed twice with Hank's solution. The cells were treated with 1 mM IBMX [isobutylmethylxanthine, Sigma, St. Louis, Mo.] in fresh medium for 15 min, and a tested PTH analog was added to the medium to incubate for 5 min. The reaction was stopped by the addition of 1.2M TCA followed by sample neutralization with 4N KOH. Cyclic AMP was isolated by the two-column chromatographic method (see Salomon et al. 1974 Anal. Biochem. 58;541). The radioactivity was counted in a scintillation counter (Liquid scintillation counter 2200CA, PACKARD, Downers Grove, Ill.).

Row | Structure (SMILES) | IC50 [1] [nM] | EC50 [2] [nM]
1 | CCCC[C@H](NC(=O)[C@H](CO)NC(=O)[C@H](CO)NC(=O)[C@H](CC(C)C)NC(=O)[C@H](Cc1c[nH]cn1)NC(=O)[C@H](CCCCN)NC(=O)CNC(=O)[C@H](CC(C)C)NC(=O)[C@H](CC(N)=O)NC(=O)[C@H](Cc1c[nH]cn1)NC(=O)[C@H](CCCC)NC(=O)[C@H](Cc1ccccc1)NC(=O)[C@H](CCC(N)=O)NC(=O)[C@@H](NC(=O)[C@H](CCC(=O)O)NC(=O)[C@H](CO)NC(=O)[C@@H](NC(=O)[C@H](C)N)C(C)C)[C@@H](C)CC)C(=O)N[C@@H](CCC(=O)O)C(=O)N[C@@H](CCCNC(=N)N)C(=O)N[C@H](C(=O)N[C@@H](CCC(=O)O)C(=O)N[C@@H](Cc1c[nH]c2ccccc12)C(=O)N[C@@H](CC(C)C)C(=O)N[C@@H](CCCNC(=N)N)C(=O)N[C@@H](CCCCN)C(=O)N[C@@H](CCCCN)C(=O)N[C@@H](CC(C)C)C(=O)N[C@@H](CCC(N)=O)C(=O)N[C@@H](CC(=O)O)C(=O)N[C@H](C(=O)N[C@@H](Cc1c[nH]cn1)C(=O)N[C@@H](CC(N)=O)C(=O)N[C@@H](Cc1ccc(O)cc1)C(N)=O)C(C)C)C(C)C [Analog V, [Nle^8, Nle^18, Tyr^34]bPTH1-34 NH2, reference compound] (H-AVSEIQF[Nle]HNLGKHLSS[Nle]ERVEWLRKKLQDVHNY-NH2; N-terminus assumed) | 1.5 | 2
2 | CCCC[C@H](NC(=O)[C@H](CO)NC(=O)[C@H](CO)NC(=O)[C@H](CC(C)C)NC(=O)[C@H](Cc1c[nH]cn1)NC(=O)[C@H](CCCCN)NC(=O)CNC(=O)[C@H](CC(C)C)NC(=O)[C@H](CC(N)=O)NC(=O)[C@H](Cc1c[nH]cn1)NC(=O)[C@H](CCCC)NC(=O)[C@H](Cc1ccccc1)NC(=O)[C@H](CCC(N)=O)NC(=O)[C@@H](NC(=O)[C@H](CCC(=O)O)NC(=O)[C@H](CO)NC(=O)[C@@H](NC(=O)[C@H](C)N)C(C)C)[C@@H](C)CC)C(=O)N[C@@H](CCCNC(=N)N)C(=O)N[C@@H](CCCNC(=N)N)C(=O)N[C@H](C(=O)N[C@@H](CCC(=O)O)C(=O)N[C@@H](Cc1c[nH]c2ccccc12)C(=O)N[C@@H](CC(C)C)C(=O)N[C@@H](CCCNC(=N)N)C(=O)N[C@@H](CCCCN)C(=O)N[C@@H](CCCCN)C(=O)N[C@@H](CC(C)C)C(=O)N[C@@H](CCC(N)=O)C(=O)N[C@@H](CC(=O)O)C(=O)N[C@H](C(=O)N[C@@H](Cc1c[nH]cn1)C(=O)N[C@@H](CC(N)=O)C(=O)N[C@@H](Cc1ccc(O)cc1)C(N)=O)C(C)C)C(C)C [Analog II, [Nle^8,18,Arg^19,Tyr^34]bPTH1-34 NH2] (H-AVSEIQF[Nle]HNLGKHLSS[Nle]RRVEWLRKKLQDVHNY-NH2; N-terminus assumed) | 0.6 | 2
3 | CCCC[C@H](NC(=O)[C@H](CO)NC(=O)[C@H](CO)NC(=O)[C@H](CC(C)C)NC(=O)[C@H](Cc1c[nH]cn1)NC(=O)[C@H](CCCCN)NC(=O)CNC(=O)[C@H](CC(C)C)NC(=O)[C@H](CC(N)=O)NC(=O)[C@H](Cc1c[nH]cn1)NC(=O)[C@H](CCCC)NC(=O)[C@H](Cc1ccccc1)NC(=O)[C@H](CCC(N)=O)NC(=O)[C@@H](NC(=O)[C@H](CCC(=O)O)NC(=O)[C@H](CO)NC(=O)[C@@H](NC(=O)[C@H](C)N)C(C)C)[C@@H](C)CC)C(=O)N[C@@H](CCC(=O)O)C(=O)N[C@@H](CCCNC(=N)N)C(=O)N[C@@H](CCCNC(=N)N)C(=O)N[C@@H](CCC(=O)O)C(=O)N[C@@H](Cc1c[nH]c2ccccc12)C(=O)N[C@@H](CC(C)C)C(=O)N[C@@H](CCCNC(=N)N)C(=O)N[C@@H](CCCCN)C(=O)N[C@@H](CCCCN)C(=O)N[C@@H](CC(C)C)C(=O)N[C@@H](CCC(N)=O)C(=O)N[C@@H](CC(=O)O)C(=O)N[C@H](C(=O)N[C@@H](Cc1c[nH]cn1)C(=O)N[C@@H](CC(N)=O)C(=O)N[C@@H](Cc1ccc(O)cc1)C(N)=O)C(C)C [Analog III, [Nle^8,18,Arg^21,Tyr^34]bPTH1-34 NH2] (H-AVSEIQF[Nle]HNLGKHLSS[Nle]ERREWLRKKLQDVHNY-NH2; N-terminus assumed) | 0.3 | 0.2
4 | CCCC[C@H](NC(=O)[C@H](CO)NC(=O)[C@H](CO)NC(=O)[C@H](CC(C)C)NC(=O)[C@H](Cc1c[nH]cn1)NC(=O)[C@H](CCCCN)NC(=O)CNC(=O)[C@H](CC(C)C)NC(=O)[C@H](CC(N)=O)NC(=O)[C@H](Cc1c[nH]cn1)NC(=O)[C@H](CCCC)NC(=O)[C@H](Cc1ccccc1)NC(=O)[C@H](CCC(N)=O)NC(=O)[C@@H](NC(=O)[C@H](CCC(=O)O)NC(=O)[C@H](CO)NC(=O)[C@@H](NC(=O)[C@H](C)N)C(C)C)[C@@H](C)CC)C(=O)N[C@@H](CCC(=O)O)C(=O)N[C@@H](CCCNC(=N)N)C(=O)N[C@H](C(=O)N[C@@H](Cc1ccccc1)C(=O)N[C@@H](Cc1c[nH]c2ccccc12)C(=O)N[C@@H](CC(C)C)C(=O)N[C@@H](CCCNC(=N)N)C(=O)N[C@@H](CCCCN)C(=O)N[C@@H](CCCCN)C(=O)N[C@@H](CC(C)C)C(=O)N[C@@H](CCC(N)=O)C(=O)N[C@@H](CC(=O)O)C(=O)N[C@H](C(=O)N[C@@H](Cc1c[nH]cn1)C(=O)N[C@@H](CC(N)=O)C(=O)N[C@@H](Cc1ccc(O)cc1)C(N)=O)C(C)C)C(C)C [Analog I, [Nle^8,18,Phe^22,Tyr^34]bPTH1-34 NH2] (H-AVSEIQF[Nle]HNLGKHLSS[Nle]ERVFWLRKKLQDVHNY-NH2; N-terminus assumed) | 1.5 | 1.5
5 | CCCC[C@H](NC(=O)[C@H](CO)NC(=O)[C@H](CO)NC(=O)[C@H](CC(C)C)NC(=O)[C@H](Cc1c[nH]cn1)NC(=O)[C@H](CCCCN)NC(=O)CNC(=O)[C@H](CC(C)C)NC(=O)[C@H](CC(N)=O)NC(=O)[C@H](Cc1c[nH]cn1)NC(=O)[C@H](CCCC)NC(=O)[C@H](Cc1ccccc1)NC(=O)[C@H](CCC(N)=O)NC(=O)[C@@H](NC(=O)[C@H](CCC(=O)O)NC(=O)[C@H](CO)NC(=O)[C@@H](NC(=O)[C@H](C)N)C(C)C)[C@@H](C)CC)C(=O)N[C@@H](CCCNC(=N)N)C(=O)N[C@@H](CCCNC(=N)N)C(=O)N[C@@H](CCCNC(=N)N)C(=O)N[C@@H](CCC(=O)O)C(=O)N[C@@H](Cc1c[nH]c2ccccc12)C(=O)N[C@@H](CC(C)C)C(=O)N[C@@H](CCCNC(=N)N)C(=O)N[C@@H](CCCCN)C(=O)N[C@@H](CCCCN)C(=O)N[C@@H](CC(C)C)C(=O)N[C@@H](CCC(N)=O)C(=O)N[C@@H](CC(=O)O)C(=O)N[C@H](C(=O)N[C@@H](Cc1c[nH]cn1)C(=O)N[C@@H](CC(N)=O)C(=O)N[C@@H](Cc1ccc(O)cc1)C(N)=O)C(C)C [Analog IV, [Nle^8,18,Arg^19,21,Tyr^34]bPTH1-34 NH2] (H-AVSEIQF[Nle]HNLGKHLSS[Nle]RRREWLRKKLQDVHNY-NH2; N-terminus assumed) | 0.3 | 0.5
